The text below walks through data of US20230097253A1, “NOVEL QUINAZOLINE COMPOUND AS THERAPEUTIC AGENT FOR METABOLIC DISORDERS” (BIOWAY., INC, priority 2020, published 2023).

Assay [1] deals with steatosis-induced Huh-7 cells. The experiment in a line: Expression of lipogenesis-related proteins (western blot). In kind it is cell-based. The conditions noted are these: Huh7 cells, 250 μM PA; 0.5, 2.5, 10 μM, 24 hours; FIG. 9-A. The protocol: To induce steatosis in Huh-7 cells in each well except for control cells, the Huh-7 cells were treated with PA bound to 2% BSA at a concentration of 250 μM except for the control, and the control cells were pretreated with 2% BSA without FA.
The cells in each well were treated with the compound of Chemical Formula 2 0.5 μM, 2.5 μM, and 10 μM and then cultured for 24 hours. The control cells and PA treated cells were treated with DMSO. All media were aspirated and the cells were gently washed 3 times with cold PBS.
A cold lysis buffer containing 150 mM sodium chloride (NaCl), 5 mM ethylenediaminetetraacetic acid (EDTA), pH 8.0, […] 4-(2-hydroxyethyl)-1-piperazineethanesulfonic acid (HEPES), 1% nonylphenoxypolyethoxylethanol (NP-40), 2 μg/mL aprotinin, 1 μM pepstatin A, 10 μM leupeptin, 1 mM sodium fluoride (NaF), 0.2 mM sodium orthovanadate ([…]), and 1 μM phenylmethylsulfonyl fluoride (PMSF) was added thereto.
A whole cell lysate was collected and gently pipetted at least 10 times to ensure complete lysis. The sample was incubated on ice for 20 minutes and centrifuged 4° C. at 13,000 rpm, for 20 minutes. […]
Images were acquired using an ImageQuant LAS 3000 (Fujifilm, Tokyo, Japan). Data were analyzed.

In assay [2] the test system is DIAMOND™ mouse model. Nature of the assay: Insulin resistance test. The conditions noted are these: insulin 0.75 UU/kg intraperitoneally after 6 hours fasting; at 0 and 90 minutes, statistical significance vs control group (VC); FIG. 20. In kind it is in vivo. The method, then:
(§1) The DIAMOND™ mouse model, an animal model prepared using a Western diet and sugar water, was used. The DIAMOND™ mice were induced with WDSW for 14 weeks, and 12 mice were used for the control group and 12 mice for the BW-3290 treatment group, and BW-3290 was orally administered at 16 mg/kg once daily for 8 weeks. An autopsy was performed at week 22, and blood collection and tissue storage were performed for the individuals in each group.
The insulin resistance test was performed one week before autopsy, and the subject was fasted for 6 hours.
Insulin was injected intraperitoneally at a concentration of 0.75 UU/kg, and the blood was collected 15 minutes, 30 minutes, 45 minutes, and 90 minutes after the injection, and the blood glucose levels were measured using the OneTouch Plus Ultra Glucometer and glucose scores were evaluated therefrom.

In assay [3] the test system is DIAMOND™ mouse model. The experiment in a line: In-vivo activity in DIAMOND mouse model: body weight, liver weight, liver function enzymes. As to conditions: DIAMOND mice, 16 mg/kg oral once daily for 8 weeks. The method, then: as §1
The test system of assay [4] is steatosis-induced Huh7 cells. Nature of the assay: Fat globule reducing effect by Oil-Red-O staining, compared to existing developed materials. As to conditions: FIG. 3. In kind it is cell-based. The method, then:
In order to confirm the inhibition of fat accumulation in steatosis-induced liver cells, Huh7 cells were cultured in an incubator set at 37° C., 95% humidity, and 5% C02.
Additionally, Huh7 cells were proliferated to a confluency of 80-90% on a plate using a growth medium (Dulbecco's modified Eagle's medium (DMEM) supplemented with 10% fetal bovine serum (FBS), 100 U/ml of penicillin, and 100 μg/ml of streptomycin), and then used for the experiment.
In order to confirm the ability of BW-3290 to inhibit fat globule accumulation in steatosis-induced liver cells compared to the existing material under development, the liver cells were treated with palmitic acid (PA) bound to 2% BSA at a concentration of 250 μM except for the control group to induce steatosis, and then fat globules were stained through Oil-Red-O staining.
First, liver cells were cultured to grow 80-90% confluency in a 12 well plate, and the test material, BW-3290, were diluted in the culture medium that induced steatosis and the liver cells, except for the control group, were treated with 0.5 μM, 2.5 μM, 5 μM, and […].
Additionally, after removing the cell supernatant from the wells for Oil-Red-O staining, the washing process was performed twice with PBS.
Additionally, after washing, the resultant was fixed with 4% paraformaldehyde for 30 minutes. […]

The test system of assay [5] is DIAMOND™ mouse model. Nature of the assay: Efficacy in improving liver fibrosis (Sirius Red and Trichrome staining of liver tissue). As to conditions: DIAMOND mice liver tissue, 16 mg/kg oral once daily for 8 weeks, compared to control group (VC). It counts as in vivo. The protocol:
as §1
Staining was performed by Sirius Red staining and Trichrome (Masson's trichrome) staining, which are the staining methods that can confirm fibrosis, was stained using the liver tissue obtained after autopsy.

[6] abbreviates: week 22, compared to control group (VC), FIG. 17.
[7] abbreviates: vs control group (VC), statistical significance.

As to `CC(C)C(Nc1ncnc2nc[nH]c12)c1nc2cccc(Cl)c2c(=O)n1-c1ccccc1` (stereo not shown) [BW-3290, 2-(1-((7H-purin-6-yl)amino)-2-methylpropyl)-5-chloro-3-phenylquinazolin-4(3H)-one], in assay [1], the “level of FAS protein” value was “decreased in a concentration-dependent manner” and the “level of SREBP1 protein” value was “decreased in a concentration-dependent manner”. For the same molecule, in the assay with DIAMOND™ mouse model [2], the glucose score result is recorded as “decreased”. For the same molecule, in the assay on DIAMOND™ mouse model [3] (week 22), the liver/body weight ratio result was “improve”. In the assay with DIAMOND™ mouse model [3] (setting [6]), the body weight entry is reported as “decreased” and the liver weight result was “decreased”. Besides, the “alkaline phosphatase (ALP) level” value in the assay with DIAMOND™ mouse model [3] (vs control group (VC)) is on record as “decreased”. Also, in the assay on DIAMOND™ mouse model [3] (setting [7]), the “alanine aminotransferase (ALT) level” value is reported as “decreased” and the “aspartate aminotransferase (AST) level” value was “decreased”. In assay [4] (250 μM PA, 0.5, 2.5, 5 and 10 μM, concentration dependent), the “fat globule staining (Oil-Red-O) compared to PA” value is “lower level of fat globule staining compared to PA”. The “staining of fat globules in comparison with PF-06409577 and elafibranor” value in assay [4] (250 μM PA, at the same concentration of 10 μM and at lower concentrations) was “reduced”. The “fiberized portions stained in blue by Trichrome staining” value in the assay with DIAMOND™ mouse model [5] was “reduced”. Further, in the assay on DIAMOND™ mouse model [5] (FIGS. 19 and 22), the “collagen and amyloid tissues stained in red by Sirius Red staining” value is “decreased”.
